The values that follow come from patent US20250388565A1, “ESTROGEN RECEPTOR ALPHA DEGRADERS AND METHODS OF USE THEREOF” (Relay Therapeutics, Inc., priority 2022, published 2025).

This assay addresses T1, ERα protein (HiBiT-tagged) in ESR1_HiBiT KI MCF7 cells (Homo sapiens, UniProt P03372).
T1 sequence (P03372 1-595): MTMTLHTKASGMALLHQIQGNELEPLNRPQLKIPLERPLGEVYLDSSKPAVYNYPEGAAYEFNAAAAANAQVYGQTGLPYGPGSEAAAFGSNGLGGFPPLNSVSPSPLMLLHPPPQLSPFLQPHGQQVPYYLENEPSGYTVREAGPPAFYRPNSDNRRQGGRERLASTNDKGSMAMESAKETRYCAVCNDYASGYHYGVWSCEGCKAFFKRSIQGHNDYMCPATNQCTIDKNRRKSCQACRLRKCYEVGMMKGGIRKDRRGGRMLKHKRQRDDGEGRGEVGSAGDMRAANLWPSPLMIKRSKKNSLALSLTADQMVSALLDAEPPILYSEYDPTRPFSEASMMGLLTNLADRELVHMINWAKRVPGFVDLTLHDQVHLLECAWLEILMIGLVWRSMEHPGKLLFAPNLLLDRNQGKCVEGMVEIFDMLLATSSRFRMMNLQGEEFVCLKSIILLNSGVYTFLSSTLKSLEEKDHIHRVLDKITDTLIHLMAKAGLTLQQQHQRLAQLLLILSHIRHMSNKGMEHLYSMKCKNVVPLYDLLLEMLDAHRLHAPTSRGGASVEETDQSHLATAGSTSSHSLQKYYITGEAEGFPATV
In words: Nano Glo HiBiT Lytic Degradation Assay. The assay is classed as cell-based. As to conditions: 6 hours with compound, 14-point dose response 1:3, bell-shape curve fit, half-maximal effect of first Hill model, read-out: MCF7 ESR1 HiBiT - (DC50). The gist of the method:
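ESR1_HiBiT knock-in MCF7 cells were seeded 24 h before treatment, then exposed to compounds for 6 h at 37° C (14-point 1:3 curves, 10 mM top stock, 0.1% DMSO final, duplicates). HiBiT-ERα was read by lytic LgBiT luminescence, background-subtracted and normalized to DMSO. DC50 was taken from the half-maximal point of the first Hill component of a bell-shaped fit.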
For orientation: HiBiT is a short tag that completes a luciferase, so light tracks the accessible tagged protein.
As for `O=C1CC[C@H](N2Cc3cc(N4CCN(CC5CCN(c6ccc([C@@H]7c8ccc(O)cc8CC[C@@H]7c7ccc(O)cc7)cc6)CC5)CC4)ccc3C2=O)C(=O)N1` [Compound I-131, (35)-3-[5-[4-[[1-[4-[(1R, 2S)-6-hydroxy-2-(4-hydroxyphenyl)tetralin-1-yl]phenyl]-4-piperidyl]methyl]piperazin-1-yl]-1-oxo-isoindolin-2-yl]piperidine-2,6-dione], the 50% degradation concentration (DC50) (commonly the concentration giving 50% degradation) was 0.03 nM.

With `O=C1CCC(N2Cc3cc(N4CCN(CC5CCN(c6ccc([C@@H]7c8ccc(O)cc8CC[C@@H]7c7cccnc7)cc6)CC5)CC4)ccc3C2=O)C(=O)N1` (single isomer, unassigned) [Compound I-107], the half-maximal degradation concentration (DC50) was ≥ 10000 nM.

For the compound `O=C1CC[C@H](N2Cc3cc(N4CCN(CC5CCN(c6ccc([C@H]7c8ccc(O)cc8CC[C@H]7c7ccc(O)cc7)cc6)CC5)CC4)ccc3C2=O)C(=O)N1` [Compound I-130, (35)-3-[5-[4-[[1-[4-[(1S, 2R)-6-hydroxy-2-(4-hydroxyphenyl)tetralin-1-yl]phenyl]-4-piperidyl]methyl]piperazin-1-yl]-1-oxo-isoindolin-2-yl]piperidine-2,6-dione], the DC50 was ≥ 10000 nM.

Turning to `Cn1nc(C2CCC(=O)NC2=O)c2ccc(N3CCN(CC4CCN(c5ccc([C@@H]6c7ccc(O)cc7C(F)(F)C[C@@H]6c6ccccc6)cc5)CC4)CC3)cc21` (single isomer, unassigned) [Compound I-298], the DC50 amounted to 1 nM.

Regarding `O=C1CC[C@H](N2Cc3cc(N4CCN(CC5CCN(c6ccc([C@H]7c8ccc(O)cc8CC[C@H]7c7ccccc7)cn6)CC5)CC4)ccc3C2=O)C(=O)N1` [II-79], the half-maximal degradation concentration (DC50) is ≥ 10000 nM.

Consider `O=C1CC[C@H](N2Cc3cc(N4CCN(CC5CCN(c6ccc([C@H]7c8ccc(C(=O)O)cc8CC[C@H]7c7ccccc7)cc6)CC5)CC4)ccc3C2=O)C(=O)N1` (single isomer, unassigned) [Compound I-1], for which the DC50 is 3 nM.

For the compound `O=C1CC[C@H](N2Cc3cc(N4CCN(CC5CCN(c6ccc([C@@H]7c8ccc(O)cc8CO[C@@]78CCCc7ccccc78)cc6)CC5)CC4)ccc3C2=O)C(=O)N1` [Compound I-76, (S)-3-(5-(4-((1-(4-((3S,4R)-7-hydroxy-3′,4′-dihydro-2′H-spiro[isochromane-3,1′-naphthalen]-4-yl)phenyl)piperidin-4-yl)methyl)piperazin-1-yl)-1-oxoisoindolin-2-yl)piperidine-2,6-dione], the half-maximal degradation concentration (DC50) stood at 0.21 nM.

As to `C[C@H]1Cc2cc(O)ccc2[C@H](c2ccc(N3CCC(CN4CCN(c5ccc6c(c5)CN([C@H]5CCC(=O)NC5=O)C6=O)CC4)CC3)cc2)[C@@H]1c1ccccc1` [Compound I-334, (S)-3-(5-(4-((1-(4-((1S,2R,3S)-6-hydroxy-3-methyl-2-phenyl-1,2,3,4-tetrahydronaphthalen-1-yl)phenyl)piperidin-4-yl)methyl)piperazin-1-yl)-1-oxoisoindolin-2-yl)piperidine-2,6-dione], the DC50 was determined as 28 nM.

As to `O=C1CCC(N2Cc3cc(N4CCN(CC5CCN(c6ccc([C@@H]7c8ccc(O)cc8CC[C@@H]7c7ccccc7)cc6)CC5)CC4)c(F)cc3C2=O)C(=O)N1` (single isomer, unassigned) [II-38], the 50% degradation concentration (DC50) was found to be 1 nM.

As to `O=C1CCC(N2Cc3cc(N4CCN(CC5CCN(c6ccc([C@@H]7c8ccc(O)cc8CC[C@@H]7c7cccc8c7CC8)cc6)CC5)CC4)ccc3C2=O)C(=O)N1` (single isomer, unassigned) [Compound I-100], the DC50 stood at 0.33 nM.

With `O=C1CC[C@H](N2Cc3cc(N4CCN(CC5CCN(c6ccc([C@H]7c8ccc(O)cc8CO[C@H]7c7ccc8c(c7)CC8)cc6)CC5)CC4)ccc3C2=O)C(=O)N1` (single isomer, unassigned) [Compound I-364], the DC50 was ≥ 10000 nM.

With `O=C1CC[C@H](N2Cc3cc(N4CCN(CC5CCN(c6ccc([C@H]7c8ccc(O)cc8CC[C@]78CCc7ccccc78)cc6)CC5)CC4)ccc3C2=O)C(=O)N1` [Compound I-259, (S)-3-(5-(4-((1-(4-((1R,1′R)-6′-hydroxy-2,3,3′,4′-tetrahydro-1′H-spiro[indene-1,2′-naphthalen]-1′-yl)phenyl)piperidin-4-yl)methyl)piperazin-1-yl)-1-oxoisoindolin-2-yl)piperidine-2,6-dione], the DC50 came out at 98 nM.

In the case of `COc1cccc([C@H]2OCc3cc(O)ccc3[C@H]2c2ccc(N3CCC(CN4CCN(c5ccc6c(c5)CN([C@H]5CCC(=O)NC5=O)C6=O)CC4)CC3)cc2)c1` [Compound I-373, (S)-3-(5-(4-((1-(4-((3S,4R)-7-hydroxy-3-(3-methoxyphenyl)isochroman-4-yl)phenyl)piperidin-4-yl)methyl)piperazin-1-yl)-1-oxoisoindolin-2-yl)piperidine-2,6-dione], the DC50 amounted to 0.78 nM.

Take `Cn1nc(C2CCC(=O)NC2=O)c2cccc(N3CCN(CC4CCN(c5ccc([C@@H]6c7ccc(O)cc7CC[C@@H]6c6ccccc6)cc5)CC4)CC3)c21` (stereo partly drawn) [Compound I-189, 3-(7-(4-((1-(4-((1R,2S)-6-hydroxy-2-phenyl-1,2,3,4-tetrahydronaphthalen-1-yl)phenyl)piperidin-4-yl)methyl)piperazin-1-yl)-1-methyl-1H-indazol-3-yl)piperidine-2,6-dione]: the DC50 is 2 nM.

Turning to `O=C1CC[C@H](N2Cc3cc(N4CCN(CC5CCN(c6ccc([C@@H]7c8ccc(Cl)cc8CC[C@@H]7c7ccccc7)cc6)CC5)CC4)ccc3C2=O)C(=O)N1` [II-60], the 50% degradation concentration (DC50) was ≥ 10000 nM.

Turning to `O=C1CC[C@H](N2Cc3cc(N4CCN(CC5CCN(c6ccc([C@@H]7c8ccc(O)cc8CCC78CCCCC8)cc6)CC5)CC4)ccc3C2=O)C(=O)N1` [Compound I-85, (S)-3-(5-(4-((1-(4-((R)-6′-hydroxy-3′,4′-dihydro-1′H-spiro[cyclohexane-1,2′-naphthalen]-1′-yl)phenyl)piperidin-4-yl)methyl)piperazin-1-yl)-1-oxoisoindolin-2-yl)piperidine-2,6-dione], the half-maximal degradation concentration (DC50) was found to be 0.64 nM.

Turning to `O=C1CC[C@H](N2Cc3cc(N4CCN(CC5CCN(c6ccc([C@@H]7c8ccc(O)cc8CO[C@H]7C7CCCCC7)cc6)CC5)CC4)ccc3C2=O)C(=O)N1` [Compound I-249, (S)-3-(5-(4-((1-(4-((3S,4R)-3-cyclohexyl-7-hydroxyisochroman-4-yl)phenyl)piperidin-4-yl)methyl)piperazin-1-yl)-1-oxoisoindolin-2-yl)piperidine-2,6-dione], the DC50 was found to be 0.61 nM.

As for `Cc1c(F)cccc1[C@H]1OCc2cc(O)ccc2[C@H]1c1ccc(N2CCC(CN3CCN(c4ccc5c(c4)CN([C@H]4CCC(=O)NC4=O)C5=O)CC3)CC2)cc1` (single isomer, unassigned) [Compound I-379], the 50% degradation concentration (DC50) was 0.37 nM.

On to `C[C@H]1CN(CC2CCN(c3ccc([C@H]4c5ccc(O)cc5CC[C@H]4c4ccccc4)cc3)CC2)CCN1c1ccc2c(c1)CN([C@H]1CCC(=O)NC1=O)C2=O` (single isomer, unassigned) [II-12], for which the DC50 was ≥ 10000 nM.

On to `O=C1CC[C@H](N2Cc3cc(N4CCN(CC5CCN(c6ccc([C@@H]7c8ccc(O)cc8C(F)(F)C[C@@H]7c7ccc(F)cc7)cc6)CC5)CC4)ccc3C2=O)C(=O)N1` [Compound I-192, (S)-3-(5-(4-((1-(4-((1R,2S)-4,4-difluoro-2-(4-fluorophenyl)-6-hydroxy-1,2,3,4-tetrahydronaphthalen-1-yl)phenyl)piperidin-4-yl)methyl)piperazin-1-yl)-1-oxoisoindolin-2-yl)piperidine-2,6-dione], for which the DC50 came out at 0.62 nM.

For `O=C1CC[C@H](N2Cc3cc(N4CCN(CC5CCN(c6ccc([C@H]7c8ccc(O)cc8C(F)(F)C[C@H]7c7ccccc7)cc6F)CC5)CC4)ccc3C2=O)C(=O)N1` [Compound I-328, (S)-3-(5-(4-((1-(4-((1S,2R)-4,4-difluoro-6-hydroxy-2-phenyl-1,2,3,4-tetrahydronaphthalen-1-yl)-2-fluorophenyl)piperidin-4-yl)methyl)piperazin-1-yl)-1-oxoisoindolin-2-yl)piperidine-2,6-dione], the 50% degradation concentration (DC50) was 9 nM.

With `O=C1CC[C@H](N2Cc3cc(N4CCN(CC5CCN(c6ccc([C@@H]7c8ccc(O)cc8CO[C@@H]7c7ccc(C(F)(F)F)cc7)cc6)CC5)CC4)ccc3C2=O)C(=O)N1` (single isomer, unassigned) [Compound I-36], the DC50 came out at 80 nM.

For the compound `O=C1CC[C@H](N2Cc3cc(N4CCN(CC5CCN(c6ccc([C@@H]7c8ccc(O)c(Cl)c8CC[C@@H]7c7ccccc7)cc6)CC5)CC4)ccc3C2=O)C(=O)N1` [II-65], the DC50 was 4 nM.

Regarding `O=C1CC[C@H](N2Cc3cc(N4CCN(CC5CCN(c6ccc([C@H]7c8ccc(O)cc8CC[C@H]7c7cccc8c7CCC8)cc6)CC5)CC4)ccc3C2=O)C(=O)N1` (single isomer, unassigned) [Compound I-411], the 50% degradation concentration (DC50) was 1 nM.

As to `O=C1CCC(N2Cc3cc(N4CCN(CC5CCC(c6ccc([C@@H]7c8ccc(O)cc8CC[C@@H]7c7ccccc7)cc6)CC5)CC4)ccc3C2=O)C(=O)N1` (stereo partly shown) [II-53], the half-maximal degradation concentration (DC50) was 0.22 nM.
